The record followed here is patent US20250059179A1, “Heterocyclic Compounds and Methods of Use” (AMGEN INC., priority 2021, published 2025).

In experiment [1] the target is His-tagged KRAS G12D protein (Homo sapiens, UniProt P01116, G12D). The experiment in a line: KRAS G12D TR-FRET Assay.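 Note: europium anti-His antibody paired with streptavidin-d2 as FRET partners, initial 30 min incubation, then peptide 1 h and detection reagents 1 h, all at room temperature.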 In kind it is binding. The following applies: biotinylated KRPep-2d substrate, 10 μM GDP.
Chain of His-tagged KRAS G12D protein (P01116 1-188 isoform P01116-2 G12D): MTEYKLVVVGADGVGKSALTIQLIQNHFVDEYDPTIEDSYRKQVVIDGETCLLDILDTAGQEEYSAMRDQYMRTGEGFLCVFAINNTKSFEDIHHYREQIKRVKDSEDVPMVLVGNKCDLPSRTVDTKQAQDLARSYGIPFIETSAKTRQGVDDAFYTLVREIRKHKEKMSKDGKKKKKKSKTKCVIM
The target in experiment [2] is GDP-bound KRAS protein (aa 1-169), containing both G12D and C118A amino acid substitutions (Homo sapiens, UniProt P01116, C118A/G12D). The experiment in a line: KRAS G12D Coupled Nucleotide Exchange Assay.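 Note: IC50 obtained by fitting the AlphaScreen signal with a four-parameter logistic curve.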 The following applies: 2 h compound pre-incubation; SOS-mediated nucleotide exchange, cRAF AlphaScreen readout. The experiment is classed as biochemical.
Chain of GDP-bound KRAS protein (aa 1-169), containing both G12D and C118A amino acid substitutions (P01116 1-169 isoform P01116-2 G12D/C118A): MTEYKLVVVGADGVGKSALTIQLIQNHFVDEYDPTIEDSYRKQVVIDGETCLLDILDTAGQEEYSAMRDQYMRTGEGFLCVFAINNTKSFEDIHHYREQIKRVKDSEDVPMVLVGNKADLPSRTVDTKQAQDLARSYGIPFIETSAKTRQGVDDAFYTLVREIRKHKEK

Consider `CC1CNCC=C1c1nc(OC[C@@H]2CCCN2C)nc2c(F)c(-c3cccc4sc(N)nc34)c(Cl)cc12` (single isomer, unassigned) [Example 145], for which the midpoint of inhibition in experiment [1], the IC50, lay at 2970 nM. Moreover, the “Avg 2 h Coupled Exchange IC50” value in experiment [2] turned out to be 803 nM. Taken in the same sequence, the figures for `CC1CNCC=C1c1nc(OC[C@@H]2CCCN2C)nc2c(F)c(-c3cccc4sc(N)nc34)c(Cl)cc12` (single isomer, unassigned) [Example 146] were 4090 nM and 1560 nM.

In experiment [1], `CN1CCC[C@H]1COc1nc(N2CCNC(C(F)(F)F)C2)c2cc(Cl)c(-c3cccc4sc(N)nc34)c(F)c2n1` (stereo partly drawn) [Example 1, 4-(6-Chloro-8-fluoro-2-(((S)-1-methylpyrrolidin-2-yl)methoxy)-4-(3-(trifluoromethyl)piperazin-1-yl)quinazolin-7-yl)benzo[d]thiazol-2-amine] gave an IC50 of 11300 nM. Further, the “Avg 2 h Coupled Exchange IC50” value in experiment [2] was 3655 nM. With `Nc1nc2c(-c3c(Cl)cc4c(N5CCNCC5)nc(OCC56CCCN5CCC6)nc4c3F)ccc(F)c2s1` [Example 8, 4-(6-chloro-8-fluoro-4-(piperazin-1-yl)-2-((tetrahydro-1H-pyrrolizin-7a(5H)-yl)methoxy)quinazolin-7-yl)-7-fluorobenzo[d] thiazol-2-amine], the IC50 in experiment [1] amounted to 9 nM. Also, in experiment [2], the “Avg 2 h Coupled Exchange IC50” value was determined as 7 nM. Taken in the same sequence, the figures for `CN1CCC[C@H]1COc1nc(N2C3CNCC2COC3)c2cc(Cl)c(-c3cccc4sc(N)nc34)c(F)c2n1` [Example 10, 4-(4-(3-oxa-7,9-diazabicyclo[3.3.1]nonan-9-yl)-6-chloro-8-fluoro-2-(((S)-1-methylpyrrolidin-2-yl)methoxy)quinazolin-7-yl)benzo[d] thiazol-2-amine] were 14 nM and 10 nM. For `Nc1nc2c(-c3c(Cl)cc4c(N5CCCNC(=O)C5)nc(OCC56CCCN5CCC6)nc4c3F)ccc(F)c2s1` [Example 12, 4-(7-(2-amino-7-fluorobenzo[d]thiazol-4-yl)-6-chloro-8-fluoro-2-((tetrahydro-1H-pyrrolizin-7a(5H)-yl)methoxy)quinazolin-4-yl)-1,4-diazepan-2-one], in that order: 18 nM and 14 nM. For `Nc1nc2c(-c3c(Cl)cc4c(N5CCNC(=O)CC5)nc(OCC56CCCN5CCC6)nc4c3F)ccc(F)c2s1` [Example 13, 1-(7-(2-amino-7-fluorobenzo [d]thiazol-4-yl)-6-chloro-8-fluoro-2-((tetrahydro-1H-pyrrolizin-7a(5H)-yl)methoxy)quinazolin-4-yl)-1,4-diazepan-5-one], in that order: 22 nM and 14 nM. Regarding `CN1CCC[C@H]1COc1nc(N2CCCNCC2)c2cc(Cl)c(-c3cccc4sc(N)nc34)c(F)c2n1` [Example 17, 4-(6-chloro-4-(1,4-diazepan-1-yl)-8-fluoro-2-(((S)-1-methylpyrrolidin-2-yl)methoxy)quinazolin-7-yl)benzo[d] thiazol-2-amine], in experiment [1], the half-maximal inhibitory concentration (IC50) is 135 nM. Also, the “Avg 2 h Coupled Exchange IC50” value in experiment [2] was determined as 30 nM. Turning to `CON(C)C1CN(c2nc(N3CCNCC3)c3cc(Cl)c(-c4cccc5sc(N)nc45)c(F)c3n2)C1` [Example 104, 4-[6-chloro-8-fluoro-2-[3-[methoxy(methyl)amino]azetidin-1-yl]-4-piperazin-1-yl-quinazolin-7-yl]-1,3-benzothiazol-2-amine], in experiment [2], the “Avg 2 h Coupled Exchange IC50” value amounted to 1730 nM. On the same count and under the same terms, as for `Nc1nc2c(-c3c(Cl)cc4c(N5CCNCC5)nc(N5CC6(CCOCC(=O)N6)C5)nc4c3F)cccc2s1` [Example 105, 2-[7-(2-amino-1,3-benzothiazol-4-yl)-6-chloro-8-fluoro-4-piperazin-1-yl-quinazolin-2-yl]-8-oxa-2,5-diazaspiro[3.6]decan-6-one], the figure is 1850 nM. On the same count and under the same terms, as for `Nc1nc2c(-c3c(Cl)cc4c(N5CCNCC5)nc(NCC(O)c5cncs5)nc4c3F)cccc2s1` (stereo not shown) [Example 106, 2-[[7-(2-amino-1,3-benzothiazol-4-yl)-6-chloro-8-fluoro-4-piperazin-1-yl-quinazolin-2-yl]amino]-1-thiazol-5-yl-ethanol], the figure is 1900 nM; as for `Nc1nc2c(-c3c(Cl)cc4c(N5CCNCC5)nc(N5CCN6CCC5C6)nc4c3F)cccc2s1` (stereo not shown) [Example 107, 4-[6-chloro-8-fluoro-4-piperazin-1-yl-2-[1,4-diazabicyclo[3.2.1]octan-4-yl]quinazolin-7-yl]-1,3-benzothiazol-2-amine], 1900 nM; as for `Nc1nc2c(-c3c(Cl)cc4c(N5CCNCC5)nc(N5CC6(CC(O)c7nccn76)C5)nc4c3F)cccc2s1` (stereo not shown) [Example 108, 1′-[7-(2-amino-1,3-benzothiazol-4-yl)-6-chloro-8-fluoro-4-piperazin-1-yl-quinazolin-2-yl]spiro[6,7-dihydropyrrolo[1,2-a]imidazole-5,3′-azetidine]-7-ol], 1970 nM.

Consider `Nc1nc2c(-c3c(Cl)cc4c(N5CCNCC5)nc(N5CCC6(CCN6)C5)nc4c3F)cccc2s1` (stereo not shown) [Example 109, 4-[6-chloro-8-fluoro-4-piperazin-1-yl-2-[1,7-diazaspiro[3.4]octan-7-yl]quinazolin-7-yl]-1,3-benzothiazol-2-amine], for which the “Avg 2 h Coupled Exchange IC50” value in experiment [2] was 2170 nM. Still for that read-out and setting: as for `Nc1nc2c(-c3c(Cl)cc4c(N5CCNCC5)nc(N[C@H]5CCc6ncsc6C5)nc4c3F)cccc2s1` [Example 110, 4-[6-chloro-8-fluoro-4-piperazin-1-yl-2-[[(6S)-4,5,6,7-tetrahydro-1,3-benzothiazol-6-yl]amino]quinazolin-7-yl]-1,3-benzothiazol-2-amine], the figure is 2180 nM; as for `Nc1nc2c(-c3c(Cl)cc4c(N5CCNCC5)nc(N5CC(N6CCS(=O)(=O)CC6)C5)nc4c3F)cccc2s1` [Example 111, 4-[6-chloro-2-[3-(1,1-dioxo-1,4-thiazinan-4-yl)azetidin-1-yl]-8-fluoro-4-piperazin-1-yl-quinazolin-7-yl]-1,3-benzothiazol-2-amine], 2300 nM. On the same count and under the same terms, as for `CCN1CCN(C2CN(c3nc(N4CCNCC4)c4cc(Cl)c(-c5cccc6sc(N)nc56)c(F)c4n3)C2)CC1` [Example 112, 4-[6-chloro-2-[3-(4-ethylpiperazin-1-yl)azetidin-1-yl]-8-fluoro-4-piperazin-1-yl-quinazolin-7-yl]-1,3-benzothiazol-2-amine], the figure is 2460 nM; as for `CN1C(=O)CC2(CN(c3nc(N4CCNCC4)c4cc(Cl)c(-c5cccc6sc(N)nc56)c(F)c4n3)C2)n2ccnc21` [Example 113, 1′-[7-(2-amino-1,3-benzothiazol-4-yl)-6-chloro-8-fluoro-4-piperazin-1-yl-quinazolin-2-yl]-8-methyl-spiro[6H-imidazo[1,2-a]pyrimidine-5,3′-azetidine]-7-one], 2480 nM; as for `Nc1nc2c(-c3c(Cl)cc4c(N5CCNCC5)nc(N5CC6CNC(C6)C5)nc4c3F)cccc2s1` (stereo not shown) [Example 114, 4-[6-chloro-8-fluoro-4-piperazin-1-yl-2-[3,6-diazabicyclo[3.2.1]octan-3-yl]quinazolin-7-yl]-1,3-benzothiazol-2-amine], 2770 nM.

As for `Nc1nc2c(-c3c(Cl)cc4c(N5CCNCC5)nc(N5C[C@@H]6NCC[C@@H]65)nc4c3F)cccc2s1` [Example 115, 4-[6-chloro-2-[(1S,5S)-2,6-diazabicyclo[3.2.0]heptan-6-yl]-8-fluoro-4-piperazin-1-yl-quinazolin-7-yl]-1,3-benzothiazol-2-amine], the “Avg 2 h Coupled Exchange IC50” value in experiment [2] stood at 2860 nM. Still for that read-out and setting: the result for `Nc1nc2c(-c3c(Cl)cc4c(N5CCNCC5)nc(N5CC(n6ccnc6)C5)nc4c3F)cccc2s1` [Example 116, 4-[6-chloro-8-fluoro-2-(3-imidazol-1-ylazetidin-1-yl)-4-piperazin-1-yl-quinazolin-7-yl]-1,3-benzothiazol-2-amine] reads 3110 nM. Still for that read-out and setting: the result for `CC1(C)CN(C2CN(c3nc(N4CCNCC4)c4cc(Cl)c(-c5cccc6sc(N)nc56)c(F)c4n3)C2)CCO1` [Example 117, 4-[6-chloro-2-[3-(2,2-dimethylmorpholin-4-yl)azetidin-1-yl]-8-fluoro-4-piperazin-1-yl-quinazolin-7-yl]-1,3-benzothiazol-2-amine] reads 3320 nM; that for `Nc1nc2c(-c3c(Cl)cc4c(N5CCNCC5)nc(N5CC6(C5)NCC6(F)F)nc4c3F)cccc2s1` [Example 118, 4-[6-chloro-2-(3,3-difluoro-1,6-diazaspiro[3.3]heptan-6-yl)-8-fluoro-4-piperazin-1-yl-quinazolin-7-yl]-1,3-benzothiazol-2-amine], 3370 nM; that for `CCOC(=O)c1ccn(C2CN(c3nc(N4CCNCC4)c4cc(Cl)c(-c5cccc6sc(N)nc56)c(F)c4n3)C2)n1` [Example 119, ethyl 1-[1-[7-(2-amino-1,3-benzothiazol-4-yl)-6-chloro-8-fluoro-4-piperazin-1-yl-quinazolin-2-yl]azetidin-3-yl]pyrazole-3-carboxylate], 3670 nM.

Consider `Nc1nc2c(-c3c(Cl)cc4c(N5CCNCC5)nc(N5CC6(CCNC6)C5)nc4c3F)cccc2s1` [Example 120, 4-[6-chloro-2-(2,7-diazaspiro[3.4]octan-2-yl)-8-fluoro-4-piperazin-1-yl-quinazolin-7-yl]-1,3-benzothiazol-2-amine], for which the “Avg 2 h Coupled Exchange IC50” value in experiment [2] came out at 3900 nM. Same read-out and setting: the result for `Nc1nc2c(-c3c(Cl)cc4c(N5CCNCC5)nc(N5CCCC(c6nccs6)C5)nc4c3F)cccc2s1` (stereo not shown) [Example 121, 4-[6-chloro-8-fluoro-4-piperazin-1-yl-2-[3-thiazol-2-yl-1-piperidyl]quinazolin-7-yl]-1,3-benzothiazol-2-amine] reads 3950 nM.
